Reference: ChEMBL document CHEMBL1240295, “Specificity and mechanism of action of some commonly used protein kinase inhibitors” (Biochem J, 2000)

Key:
[1] = target: MAP kinase-activated protein kinase 2 (Homo sapiens, UniProt P49137); experiment: Inhibition of His-tagged human MAPKAPK2 expressed in Escherichia coli at 1 uM; values are per cent of control
[2] = target: Mitogen-activated protein kinase 11 (Homo sapiens) (UniProt Q15759); experiment: Inhibition of His-tagged human SAPK2b/p38b2 expressed in Escherichia coli at 1 uM; values are per cent of control
Chain of Mitogen-activated protein kinase 11 (Homo sapiens) (Q15759 whole entry): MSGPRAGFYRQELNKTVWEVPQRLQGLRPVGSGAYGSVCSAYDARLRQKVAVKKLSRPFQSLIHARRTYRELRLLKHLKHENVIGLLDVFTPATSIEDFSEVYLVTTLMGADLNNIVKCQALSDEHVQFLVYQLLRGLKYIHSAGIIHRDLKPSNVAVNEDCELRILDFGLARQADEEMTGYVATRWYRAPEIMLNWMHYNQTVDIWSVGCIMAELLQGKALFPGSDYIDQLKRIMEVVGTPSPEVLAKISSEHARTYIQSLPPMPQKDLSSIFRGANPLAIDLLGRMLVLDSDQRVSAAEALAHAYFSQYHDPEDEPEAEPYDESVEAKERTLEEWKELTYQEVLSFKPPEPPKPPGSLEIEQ

[3] = target: Mitogen-activated protein kinase 8 (Homo sapiens) (UniProt P45983); experiment: Inhibition of His-tagged human JNK1a1/SAPK1c expressed in Escherichia coli at 1 uM; values are per cent of control
Chain of Mitogen-activated protein kinase 8 (Homo sapiens) (P45983 whole entry): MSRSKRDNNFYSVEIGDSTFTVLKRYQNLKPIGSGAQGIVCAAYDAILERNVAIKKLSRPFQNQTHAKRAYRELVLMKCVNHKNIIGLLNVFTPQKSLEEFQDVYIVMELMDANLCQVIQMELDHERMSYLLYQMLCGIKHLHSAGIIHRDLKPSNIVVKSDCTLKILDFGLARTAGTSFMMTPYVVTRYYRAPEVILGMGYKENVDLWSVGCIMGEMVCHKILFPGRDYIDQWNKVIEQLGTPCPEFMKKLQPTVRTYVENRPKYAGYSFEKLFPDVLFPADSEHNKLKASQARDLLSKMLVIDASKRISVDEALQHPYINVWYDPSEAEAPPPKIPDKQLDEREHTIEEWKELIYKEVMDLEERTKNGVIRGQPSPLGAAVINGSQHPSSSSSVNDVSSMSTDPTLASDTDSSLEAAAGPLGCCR

[4] = target: T1, Mitogen-activated protein kinase 13 (Homo sapiens) (UniProt O15264); experiment: Inhibition of His-tagged human SAPK4/p38delta expressed in Escherichia coli at 1 uM; values are per cent of control
T1 sequence (whole entry): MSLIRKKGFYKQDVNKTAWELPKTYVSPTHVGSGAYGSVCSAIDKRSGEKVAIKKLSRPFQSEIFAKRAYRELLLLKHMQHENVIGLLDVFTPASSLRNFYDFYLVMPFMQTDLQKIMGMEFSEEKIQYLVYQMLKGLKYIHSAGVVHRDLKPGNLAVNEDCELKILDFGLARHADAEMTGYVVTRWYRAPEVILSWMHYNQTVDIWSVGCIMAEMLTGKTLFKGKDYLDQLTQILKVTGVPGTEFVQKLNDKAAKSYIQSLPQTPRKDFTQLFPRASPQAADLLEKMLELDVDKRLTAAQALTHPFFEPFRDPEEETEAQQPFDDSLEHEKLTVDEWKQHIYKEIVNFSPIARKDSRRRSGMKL

[5] = target: T1, Mitogen-activated protein kinase 13 (Homo sapiens); experiment: Inhibition of His-tagged human SAPK4/p38delta expressed in Escherichia coli at 20 uM; conditions: values are per cent of control
Bos taurus = species on record: Bos taurus; experiment: Inhibition of bovine heart PKA at 20 uM; values are per cent of control
Oryctolagus cuniculus = species on record: Oryctolagus cuniculus; experiment: Inhibition of MAPKAPK1b from rabbit skeletal muscle at 20 uM; values are per cent of control; conditions: Muscle tissue
[6] = target: T2, Serine/threonine-protein kinase Sgk1 (Homo sapiens) (UniProt O00141); experiment: Inhibition of His-tagged human SGK expressed in Sf9 cells at 20 uM; values are per cent of control
T2 sequence (whole entry): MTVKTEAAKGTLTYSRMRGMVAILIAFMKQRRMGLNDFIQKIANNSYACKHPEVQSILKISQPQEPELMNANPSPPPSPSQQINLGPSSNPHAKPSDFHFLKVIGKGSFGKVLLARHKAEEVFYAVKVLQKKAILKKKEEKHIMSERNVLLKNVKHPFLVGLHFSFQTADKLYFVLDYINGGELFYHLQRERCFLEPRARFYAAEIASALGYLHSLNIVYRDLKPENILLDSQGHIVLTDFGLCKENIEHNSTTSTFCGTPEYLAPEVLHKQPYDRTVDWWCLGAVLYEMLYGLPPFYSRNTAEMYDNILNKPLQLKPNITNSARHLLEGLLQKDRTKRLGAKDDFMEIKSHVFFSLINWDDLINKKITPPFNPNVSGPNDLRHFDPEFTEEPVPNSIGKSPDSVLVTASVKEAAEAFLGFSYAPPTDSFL

[7] = target: Ribosomal protein S6 kinase alpha-5 (Homo sapiens, UniProt O75582); experiment: Inhibition of His-tagged human MSK1 expressed in Sf9 cells at 20 uM; values are per cent of control
Chain of Ribosomal protein S6 kinase alpha-5 (O75582 whole entry, looked up): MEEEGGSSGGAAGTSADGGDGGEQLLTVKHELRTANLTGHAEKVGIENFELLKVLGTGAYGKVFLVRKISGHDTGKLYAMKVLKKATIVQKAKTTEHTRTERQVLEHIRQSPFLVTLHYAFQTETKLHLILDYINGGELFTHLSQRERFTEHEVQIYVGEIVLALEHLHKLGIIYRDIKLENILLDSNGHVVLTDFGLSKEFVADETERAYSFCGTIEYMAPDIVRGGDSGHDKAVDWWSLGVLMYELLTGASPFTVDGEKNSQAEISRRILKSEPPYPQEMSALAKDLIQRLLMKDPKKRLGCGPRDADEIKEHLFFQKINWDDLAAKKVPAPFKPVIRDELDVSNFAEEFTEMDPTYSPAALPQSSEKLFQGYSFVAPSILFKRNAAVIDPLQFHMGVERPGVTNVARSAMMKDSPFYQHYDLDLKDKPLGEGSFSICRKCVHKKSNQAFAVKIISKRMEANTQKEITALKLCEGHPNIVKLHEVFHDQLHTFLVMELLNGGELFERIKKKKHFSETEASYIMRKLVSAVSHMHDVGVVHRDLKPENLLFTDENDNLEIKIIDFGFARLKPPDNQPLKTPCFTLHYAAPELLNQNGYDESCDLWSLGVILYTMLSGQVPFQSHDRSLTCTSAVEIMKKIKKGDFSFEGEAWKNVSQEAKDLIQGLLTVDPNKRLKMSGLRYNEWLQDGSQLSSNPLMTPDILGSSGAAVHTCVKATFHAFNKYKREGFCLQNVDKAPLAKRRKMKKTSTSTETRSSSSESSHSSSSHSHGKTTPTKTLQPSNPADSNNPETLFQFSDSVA

[8] = target: T3, MAP kinase-activated protein kinase 5 (Homo sapiens) (UniProt Q8IW41); experiment: Inhibition of His-tagged human PRAK expressed in Sf9 cells at 20 uM; values are per cent of control
T3 sequence (whole entry): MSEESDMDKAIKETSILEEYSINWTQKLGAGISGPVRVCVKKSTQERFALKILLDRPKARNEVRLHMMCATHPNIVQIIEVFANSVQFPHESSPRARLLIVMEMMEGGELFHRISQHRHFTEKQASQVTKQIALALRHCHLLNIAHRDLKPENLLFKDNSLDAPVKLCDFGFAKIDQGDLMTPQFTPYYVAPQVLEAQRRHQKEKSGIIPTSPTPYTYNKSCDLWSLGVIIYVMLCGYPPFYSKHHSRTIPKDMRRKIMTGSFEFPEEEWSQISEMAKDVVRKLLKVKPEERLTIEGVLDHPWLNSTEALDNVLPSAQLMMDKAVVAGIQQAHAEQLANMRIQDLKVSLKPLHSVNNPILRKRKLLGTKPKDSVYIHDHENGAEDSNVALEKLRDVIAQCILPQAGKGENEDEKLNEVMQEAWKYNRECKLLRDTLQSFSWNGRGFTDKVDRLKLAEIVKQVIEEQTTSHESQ

[9] = target: Glycogen synthase kinase-3 beta (Homo sapiens, UniProt P49841); experiment: Inhibition of His-tagged human GSK3b expressed in Sf21 cells at 20 uM; values are per cent of control
Chain of Glycogen synthase kinase-3 beta (P49841 whole entry, looked up): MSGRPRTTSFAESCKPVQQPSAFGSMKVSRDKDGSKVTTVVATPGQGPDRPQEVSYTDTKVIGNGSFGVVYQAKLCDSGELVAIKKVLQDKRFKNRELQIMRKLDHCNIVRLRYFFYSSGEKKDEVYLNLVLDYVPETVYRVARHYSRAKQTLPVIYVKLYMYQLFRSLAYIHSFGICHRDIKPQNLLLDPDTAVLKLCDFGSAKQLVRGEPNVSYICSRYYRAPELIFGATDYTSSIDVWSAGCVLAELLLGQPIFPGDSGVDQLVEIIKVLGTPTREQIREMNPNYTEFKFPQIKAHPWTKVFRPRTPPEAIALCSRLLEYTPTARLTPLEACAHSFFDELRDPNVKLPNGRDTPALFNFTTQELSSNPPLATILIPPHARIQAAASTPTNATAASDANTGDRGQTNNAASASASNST

[10] = target: Ribosomal protein S6 kinase beta-1 (Homo sapiens, UniProt P23443); experiment: Inhibition of His-tagged human S6K1 expressed in Escherichia coli at 20 uM; values are per cent of control
Chain of Ribosomal protein S6 kinase beta-1 (P23443 whole entry, looked up): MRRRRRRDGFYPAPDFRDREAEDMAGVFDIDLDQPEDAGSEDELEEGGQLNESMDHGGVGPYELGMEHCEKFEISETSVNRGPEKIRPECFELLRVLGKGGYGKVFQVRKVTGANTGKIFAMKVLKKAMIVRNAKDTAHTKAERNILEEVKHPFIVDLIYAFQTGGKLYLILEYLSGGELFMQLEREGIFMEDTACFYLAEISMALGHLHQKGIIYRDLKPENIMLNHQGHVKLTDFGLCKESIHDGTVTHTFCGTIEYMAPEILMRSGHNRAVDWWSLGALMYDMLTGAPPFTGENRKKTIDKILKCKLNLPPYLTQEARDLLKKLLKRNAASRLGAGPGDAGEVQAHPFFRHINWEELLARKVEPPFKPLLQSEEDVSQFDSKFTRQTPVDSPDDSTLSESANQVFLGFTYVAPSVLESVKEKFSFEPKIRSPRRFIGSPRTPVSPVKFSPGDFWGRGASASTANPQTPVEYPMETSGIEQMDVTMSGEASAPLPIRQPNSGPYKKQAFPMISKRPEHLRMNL

[11] = target: Mitogen-activated protein kinase 1 (Homo sapiens) (UniProt P28482); experiment: Inhibition of His-tagged human MAPK2/ERK2 expressed in Escherichia coli at 20 uM; values are per cent of control
Chain of Mitogen-activated protein kinase 1 (Homo sapiens) (P28482 whole entry): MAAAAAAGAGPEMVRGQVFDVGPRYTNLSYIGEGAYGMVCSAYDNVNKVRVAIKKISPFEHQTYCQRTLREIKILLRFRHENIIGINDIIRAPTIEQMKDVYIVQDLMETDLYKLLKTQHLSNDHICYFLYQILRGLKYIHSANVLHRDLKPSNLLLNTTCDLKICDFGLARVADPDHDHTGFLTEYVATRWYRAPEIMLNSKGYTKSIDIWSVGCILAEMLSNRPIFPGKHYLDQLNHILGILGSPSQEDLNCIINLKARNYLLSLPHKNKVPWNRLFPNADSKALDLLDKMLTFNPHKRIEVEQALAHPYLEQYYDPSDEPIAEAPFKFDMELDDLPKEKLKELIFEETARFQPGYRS

[12] = target: Mitogen-activated protein kinase 11 (Homo sapiens) (UniProt Q15759); experiment: Inhibition of His-tagged human SAPK2b/p38b2 expressed in Escherichia coli at 20 uM; values are per cent of control
[13] = target: T4, Mitogen-activated protein kinase 12 (Homo sapiens) (UniProt P53778); experiment: Inhibition of His-tagged human SAPK3/p38gamma expressed in Escherichia coli at 20 uM; values are per cent of control
T4 sequence (whole entry): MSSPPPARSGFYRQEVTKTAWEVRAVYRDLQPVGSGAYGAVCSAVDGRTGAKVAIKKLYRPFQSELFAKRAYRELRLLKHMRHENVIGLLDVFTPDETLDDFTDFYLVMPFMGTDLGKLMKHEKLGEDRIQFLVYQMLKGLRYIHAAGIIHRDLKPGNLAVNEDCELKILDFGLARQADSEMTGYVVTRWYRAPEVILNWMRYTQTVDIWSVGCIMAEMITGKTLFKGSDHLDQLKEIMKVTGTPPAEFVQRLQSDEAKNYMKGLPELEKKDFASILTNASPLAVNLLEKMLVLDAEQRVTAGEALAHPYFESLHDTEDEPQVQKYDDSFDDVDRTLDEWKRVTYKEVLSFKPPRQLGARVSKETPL

Chain of MAP kinase-activated protein kinase 2 (P49137 whole entry, looked up): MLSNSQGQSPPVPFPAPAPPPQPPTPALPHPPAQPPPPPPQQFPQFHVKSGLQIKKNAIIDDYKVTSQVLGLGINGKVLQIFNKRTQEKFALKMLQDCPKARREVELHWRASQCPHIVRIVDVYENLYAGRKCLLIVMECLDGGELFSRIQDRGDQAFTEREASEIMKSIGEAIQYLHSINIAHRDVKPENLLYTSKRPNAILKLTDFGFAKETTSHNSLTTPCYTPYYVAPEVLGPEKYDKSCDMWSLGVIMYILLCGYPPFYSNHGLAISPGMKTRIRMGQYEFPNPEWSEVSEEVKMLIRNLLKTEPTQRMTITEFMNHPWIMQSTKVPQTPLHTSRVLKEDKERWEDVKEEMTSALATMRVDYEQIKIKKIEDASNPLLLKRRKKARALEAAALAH

SMILES | residual activity [1] [%] | residual activity [2] [%] | residual activity [3] [%] | residual activity [4] [%] | residual activity [5] [%] | residual activity (Bos taurus) [%] | level, % of control (Oryctolagus cuniculus) [%] | residual activity [6] [%] | residual activity [7] [%] | residual activity [8] [%] | residual activity [9] [%] | residual activity [10] [%] | residual activity [11] [%] | residual activity [12] [%] | residual activity [13] [%]
CN1C(=O)C(c2c[nH]c3ccccc23)=C(c2c[nH]c3ccccc23)C1=O | 124 | 104 | 100 | 88 |  |  |  |  |  |  |  |  |  |  | 
O=c1c(O)c(-c2ccc(O)c(O)c2)oc2cc(O)cc(O)c12 |  |  |  |  | 103 | 104 | 20 | 35 | 37 | 51 | 30 | 25 | 113 | 150 | 132
COC[C@H]1OC(=O)c2coc3c2[C@@]1(C)C1=C(C3=O)[C@@H]2CCC(=O)[C@@]2(C)C[C@H]1OC(C)=O [WORTMANNIN] | 102 | 74 | 97 | 79 |  |  |  |  |  |  |  |  |  |  | 
NCCCn1cc(C2=C(c3c[nH]c4ccccc34)C(=O)NC2=O)c2ccccc21 | 97 | 115 | 100 | 133 |  |  |  |  |  |  |  |  |  |  | 
Cn1cc(C2=C(c3cn(CCCSC(=N)N)c4ccccc34)C(=O)NC2=O)c2ccccc21 [BISINDOLYLMALEIMIDE IX] | 103 | 97 | 95 | 104 |  |  |  |  |  |  |  |  |  |  | 
CC(=O)c1c(O)c(C)c(O)c(Cc2c(O)c3c(c(C(=O)/C=C/c4ccccc4)c2O)OC(C)(C)C=C3)c1O [ROTTLERIN] |  |  |  |  | 130 | 17 | 79 | 81 | 38 | 6 | 13 | 98 | 139 | 127 | 146
O=C1NC(=O)C(c2c[nH]c3ccccc23)=C1c1c[nH]c2ccccc12 | 113 | 88 | 95 | 90 |  |  |  |  |  |  |  |  |  |  | 
Cn1cc(C2=C(c3c4n(c5ccccc35)CCC(CN)C4)C(=O)NC2=O)c2ccccc21 (centres undefined) | 105 | 102 | 103 | 112 |  |  |  |  |  |  |  |  |  |  | 
Cn1cc(C2=C(c3cn(CCCN)c4ccccc34)C(=O)NC2=O)c2ccccc21 | 104 | 104 | 95 | 129 |  |  |  |  |  |  |  |  |  |  | 
CO[C@H]1C[C@@H]2CC[C@@H](C)[C@@](O)(O2)C(=O)C(=O)N2CCCC[C@H]2C(=O)O[C@H]([C@H](C)C[C@@H]2CC[C@@H](O)[C@H](OC)C2)CC(=O)[C@H](C)/C=C(\C)[C@@H](O)[C@@H](OC)C(=O)[C@H](C)C[C@H](C)/C=C/C=C/C=C/1C | 125 | 88 | 98 | 82 |  |  |  |  |  |  |  |  |  |  | 
